“Also recorded” adds a separate entry of the source.

The values below come from PMC4667731 (Journal of medicinal chemistry, 2015).

The nature of series [1]: Pharmacokinetics in Sprague-Dawley rats. The following applies: rat; for detection in serum samples after oral dose of prodrug: p.o. 25 mg/kg.
Series [2] in a line: Serum stability studies of prodrugs. It counts as in vitro ADME. The following applies: Figure S8.
A short description of series [3]: Stability under acidic and alkaline conditions. It counts as physicochemical. Particulars: 24 h at 37 °C.
Series [4] can be described thus: in vitro. The following applies: human, Caco-2, […].
Series [5] relates to M. tuberculosis H37Rv. Nature of the series: M. tuberculosis H37Rv MIC assay under iron-deficient conditions. It counts as cell-based. Particulars: Mycobacterium tuberculosis, pH 6.6.
Series [6] concerns TB infection. Particulars: dosed intraperitoneally; cited from earlier work.
Series [7] can be described thus: Estimated pKa of the acyl-sulfonyl linker. Type of series: physicochemical.
The nature of series [8]: Aqueous solubility. It counts as physicochemical.
Series [9] relates to UDP-gluguronosyl transferase (UDPGT). Briefly: Glucuronidation study, human liver microsomes. Particulars: UDPGA. Background: Microsomes from liver hold many membrane-bound enzymes, among them those of drug oxidation.
Series [10] has the same test system. Briefly: Glucuronidation study, rat liver microsomes. The following applies: UDPGA.

Take “2′, 3′ -O-di-Acetyl-5′ -O-[N-(2-hydroxybenzoyl)sulfamoyl]adenosine [Compound 2]”: the “detection in serum samples after oral dose of prodrug” value in series [1] is “neither of the parent compounds was detected”. Moreover, the “serum stability (acetate cleavage)” value in [2] is given as “slowly hydrolyzed”.

For the compound “5′-O-[N-(2-Acetoxybenzoyl)sulfamoyl]-2′, 3′-O-di-acetyladenosine [Compound 3]”, in series [1] (25 mg/kg), the “detection in serum samples after oral dose of prodrug” value was “neither of the parent compounds was detected; also recorded: only a negligible amount of 1 could be detected”. The “serum stability (acetate cleavage)” value in series [2] was “rapidly cleaved”.

Regarding `CCN(CC)CC.Nc1ncnc2c1ncn2[C@@H]1O[C@H](COS(=O)(=O)NC(=O)c2ccccc2O)[C@@H](O)[C@H]1O` [Compound 1, 5′-O-[N-(salicyl)sulfamoyl]adenosine], the degradation result in series [3] (acidic (pH 1)) and in series [3] (alkaline (pH 12)) was “less than 5%” in each case. Further, the Papp A→B (in general, the apparent permeability from the apical to the basolateral side of a cell layer) in series [4] was 1.2 ×10⁻⁶ cm/s. In [5], the MIC – broadly, the lowest concentration found to suppress growth – turned out to be 0.2 µg/mL. In addition, the “efficacy in acute murine TB infection model” value in [6] is “effective”. Also, in series [7], the pKa – broadly, the pH at which an ionisable group is half protonated – was roughly 3.

With `CCN(CC)CC.Nc1ncnc2c1ncn2[C@@H]1O[C@H](CNS(=O)(=O)NC(=O)c2ccccc2O)[C@@H](O)[C@H]1O` [Compound 4, 5′-N-[N-(2-Hydroxybenzoyl)sulfamoyl]amino-5′ -deoxyadenosine triethylammonium salt], the highest level in [1] (female, Sprague-Dawley, in vivo, po, 25 mg/kg) (Cmax) was 1400 nM. For the same compound, the MIC in series [5] was 0.11 µg/mL. Also, in series [7], the pKa is roughly 5.

`CCN(CC)CC.Nc1ccc(C(=O)NS(=O)(=O)NC[C@H]2O[C@@H](n3cnc4c(N)ncnc43)[C@H](O)[C@@H]2O)c(O)c1` [Compound 5, 5′-N-[N-(4-Amino-2-hydroxybenzoyl)sulfamoyl]amino-5′-deoxyadenosine] gave an MIC in [5] of 1.81 µg/mL. Further, in series [7], the pKa is roughly 6.

In the case of `CCN(CC)CC.O=C(NS(=O)(=O)NC[C@H]1O[C@@H](n2cnc3c(NC4CC4)ncnc32)[C@H](O)[C@@H]1O)c1ccccc1O` [Compound 6, N^6-Cyclopropyl-5′-deoxy-5′-N-[N-(2-hydroxybenzoyl)sulfamoyl]aminoadenosine triethylammonium salt], the MIC in series [5] was 0.06 µg/mL.

As for `CCN(CC)CC.O=C(NS(=O)(=O)NC[C@H]1O[C@@H](n2cnc3c(NC4CC4)nc(-c4ccccc4)nc32)[C@H](O)[C@@H]1O)c1ccccc1O` [Compound 7, N^6-Cyclopropyl-5′-deoxy-5′-N-[N-(2-hydroxybenzoyl)sulfamoyl]amino-2-phenyladenosine triethylammonium salt], the minimum inhibitory concentration (MIC) in series [5] turned out to be 4.27 µg/mL. In series [8], the “aqueous solubility” value is “poor aqueous solubility”.

For the compound `CCN(CC)CC.Nc1ncnc2c1ncn2[C@@H]1O[C@H](CNS(=O)(=O)NC(=O)c2ccccc2O)[C@@H](O)[C@H]1F` [Compound 8, 5′-N-[N-(2-Hydroxybenzoyl)sulfamoyl]amino-2′, 5′-dideoxy-2′-fluoroadenosine triethylammonium salt], the MIC in [5] was 0.11 µg/mL.

`CCN(CC)CC.Nc1nc(-c2ccccc2)nc2c1ncn2[C@@H]1O[C@H](CNS(=O)(=O)NC(=O)c2ccccc2O)[C@@H](O)[C@H]1F` [Compound 9, 2′, 5′-Dideoxy-2′-fluoro-5′-N-[N-(2-hydroxybenzoyl)sulfamoyl]amino-2-phenyladenosine triethylammonium salt] yielded an MIC in [5] of 1 µg/mL.

The compound `CCN(CC)CC.Nc1ncnc2c1ncn2[C@@H]1O[C@H](CNS(=O)(=O)NC(=O)c2ccccc2O)C[C@H]1F` [Compound 10, 2′, 3′, 5′-Trideoxy-5′-N-[N-(2-hydroxybenzoyl)sulfamoyl]amino-2′-fluoroadenosine triethylammonium salt] gave a minimum inhibitory concentration (MIC) in [5] of 0.43 µg/mL. Against the preceding compound, the MIC is about 2.3-fold lower.

With `COc1c(C)c2c(c(O)c1C/C=C(\C)CCC(=O)O)C(=O)OC2` [MPA, Mycophenolic Acid], the results for the “glucuronidated at 60 min” value in series [9] and in series [10] were 85% and 30%, respectively.
